# Data published in PubChem BioAssay (NCI).
#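 1) Cells in 96-well plates. 2) Compound, 48 h, 5 concentrations. 3) Linear interpolation between surrounding doses. 4) Unreached endpoint = highest concentration. TGI is the concentration that stops growth completely.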
# What was measured:
# Experiment in all cases: NCI tumour cell line growth inhibition, 48 h
# M14 melanoma = tested on: M14 melanoma
# U251 CNS = tested on: U251 CNS
# SW-620 colon = tested on: SW-620 colon
# K-562 leukemia = tested on: K-562 leukemia
# PC-3 prostate = tested on: PC-3 prostate
# SF-268 CNS = tested on: SF-268 CNS
# HCT-15 colon = tested on: HCT-15 colon
# NCI-H23 lung = tested on: NCI-H23 lung
# HL-60(TB) leukemia = tested on: HL-60(TB) leukemia
# CAKI-1 renal = tested on: CAKI-1 renal
# OVCAR-5 ovarian = tested on: OVCAR-5 ovarian
# HCT-116 colon = tested on: HCT-116 colon
# SK-MEL-2 melanoma = tested on: SK-MEL-2 melanoma
# SK-MEL-28 melanoma = tested on: SK-MEL-28 melanoma
# SNB-75 CNS = tested on: SNB-75 CNS
# HCC-2998 colon = tested on: HCC-2998 colon
# NCI-H460 lung = tested on: NCI-H460 lung
# TK-10 renal = tested on: TK-10 renal
# RPMI-8226 leukemia = tested on: RPMI-8226 leukemia
# UACC-257 melanoma = tested on: UACC-257 melanoma
# MCF7 breast = tested on: MCF7 breast
# ACHN renal = tested on: ACHN renal
# MDA-N = tested on: MDA-N
# SR leukemia = tested on: SR leukemia
# MALME-3M melanoma = tested on: MALME-3M melanoma
# OVCAR-8 ovarian = tested on: OVCAR-8 ovarian
# SNB-19 CNS = tested on: SNB-19 CNS
# HT29 colon = tested on: HT29 colon
# LOX IMVI melanoma = tested on: LOX IMVI melanoma
# HOP-62 NSCLC = tested on: HOP-62 NSCLC
# RXF 393 renal = tested on: RXF 393 renal
# OVCAR-4 ovarian = tested on: OVCAR-4 ovarian
# NCI-H226 lung = tested on: NCI-H226 lung
# SN12C renal = tested on: SN12C renal
# HS 578T breast = tested on: HS 578T breast
# KM12 colon = tested on: KM12 colon
# UACC-62 melanoma = tested on: UACC-62 melanoma
# SF-539 CNS = tested on: SF-539 CNS
# NCI/ADR-RES ovarian = tested on: NCI/ADR-RES ovarian
# EKVX NSCLC = tested on: EKVX NSCLC
# DU-145 prostate = tested on: DU-145 prostate
# SF-295 CNS = tested on: SF-295 CNS
# NCI-H522 lung = tested on: NCI-H522 lung
# T-47D breast = tested on: T-47D breast
# MDA-MB-231 breast = tested on: MDA-MB-231 breast
# UO-31 renal = tested on: UO-31 renal
# IGROV1 ovarian = tested on: IGROV1 ovarian
# BT-549 breast = tested on: BT-549 breast
# SK-OV-3 ovarian = tested on: SK-OV-3 ovarian
# 786-0 renal = tested on: 786-0 renal
# CCRF-CEM leukemia = tested on: CCRF-CEM leukemia
# SK-MEL-5 melanoma = tested on: SK-MEL-5 melanoma
# COLO 205 colon = tested on: COLO 205 colon
# A549 NSCLC = tested on: A549 NSCLC
# MOLT-4 leukemia = tested on: MOLT-4 leukemia
# MDA-MB-435 = tested on: MDA-MB-435
# A498 renal = tested on: A498 renal
# OVCAR-3 ovarian = tested on: OVCAR-3 ovarian
# HOP-92 NSCLC = tested on: HOP-92 NSCLC
smiles,measurement,setting,value
O=C1CC[C@@]23CC(=O)O[C@@H]2CCCC3C1 (stereo partly specified),TGI,M14 melanoma,> 100 µM
same,TGI,U251 CNS,> 100 µM
same,TGI,SW-620 colon,> 100 µM
same,TGI,K-562 leukemia,> 100 µM
same,TGI,PC-3 prostate,> 100 µM
same,TGI,SF-268 CNS,> 100 µM
same,TGI,HCT-15 colon,> 100 µM
same,TGI,NCI-H23 lung,> 100 µM
same,TGI,HL-60(TB) leukemia,> 100 µM
same,TGI,CAKI-1 renal,> 100 µM
same,TGI,OVCAR-5 ovarian,> 100 µM
same,TGI,HCT-116 colon,> 100 µM
same,TGI,SK-MEL-2 melanoma,> 100 µM
same,TGI,SK-MEL-28 melanoma,> 100 µM
same,TGI,SNB-75 CNS,> 100 µM
same,TGI,HCC-2998 colon,> 100 µM
same,TGI,NCI-H460 lung,> 100 µM
same,TGI,TK-10 renal,> 100 µM
same,TGI,RPMI-8226 leukemia,> 100 µM
same,TGI,UACC-257 melanoma,> 100 µM
same,TGI,MCF7 breast,> 100 µM
same,TGI,ACHN renal,> 100 µM
same,TGI,MDA-N,> 100 µM
same,TGI,SR leukemia,> 100 µM
same,TGI,MALME-3M melanoma,> 100 µM
same,TGI,OVCAR-8 ovarian,> 100 µM
same,TGI,SNB-19 CNS,> 100 µM
same,TGI,HT29 colon,> 100 µM
same,TGI,LOX IMVI melanoma,> 100 µM
same,TGI,HOP-62 NSCLC,> 100 µM
same,TGI,RXF 393 renal,> 100 µM
same,TGI,OVCAR-4 ovarian,> 100 µM
same,TGI,NCI-H226 lung,> 100 µM
same,TGI,SN12C renal,> 100 µM
same,TGI,HS 578T breast,> 100 µM
same,TGI,KM12 colon,> 100 µM
same,TGI,UACC-62 melanoma,> 100 µM
same,TGI,SF-539 CNS,> 100 µM
same,TGI,NCI/ADR-RES ovarian,> 100 µM
same,TGI,EKVX NSCLC,> 100 µM
same,TGI,DU-145 prostate,> 100 µM
same,TGI,SF-295 CNS,> 100 µM
same,TGI,NCI-H522 lung,> 100 µM
same,TGI,T-47D breast,> 100 µM
same,TGI,MDA-MB-231 breast,> 100 µM
same,TGI,UO-31 renal,> 100 µM
same,TGI,IGROV1 ovarian,> 100 µM
same,TGI,BT-549 breast,> 100 µM
same,TGI,SK-OV-3 ovarian,> 100 µM
same,TGI,786-0 renal,> 100 µM
same,TGI,CCRF-CEM leukemia,> 100 µM
same,TGI,SK-MEL-5 melanoma,> 100 µM
same,TGI,COLO 205 colon,> 100 µM
same,TGI,A549 NSCLC,> 100 µM
same,TGI,MOLT-4 leukemia,> 100 µM
NCCCCNCCCN1CCOC1=O,TGI,M14 melanoma,> 100 µM
same,TGI,U251 CNS,> 100 µM
same,TGI,SW-620 colon,> 100 µM
same,TGI,K-562 leukemia,> 100 µM
same,TGI,PC-3 prostate,> 100 µM
same,TGI,SF-268 CNS,> 100 µM
same,TGI,HCT-15 colon,> 100 µM
same,TGI,NCI-H23 lung,> 100 µM
same,TGI,HL-60(TB) leukemia,> 100 µM
same,TGI,CAKI-1 renal,> 100 µM
same,TGI,OVCAR-5 ovarian,> 100 µM
same,TGI,HCT-116 colon,> 100 µM
same,TGI,SK-MEL-2 melanoma,> 100 µM
same,TGI,SK-MEL-28 melanoma,> 100 µM
same,TGI,SNB-75 CNS,> 100 µM
same,TGI,HCC-2998 colon,> 100 µM
same,TGI,NCI-H460 lung,> 100 µM
same,TGI,MDA-MB-435,> 100 µM
same,TGI,A498 renal,> 100 µM
same,TGI,TK-10 renal,> 100 µM
same,TGI,RPMI-8226 leukemia,> 100 µM
same,TGI,UACC-257 melanoma,> 100 µM
same,TGI,MCF7 breast,> 100 µM
same,TGI,ACHN renal,> 100 µM
same,TGI,MDA-N,> 100 µM
same,TGI,SR leukemia,> 100 µM
same,TGI,MALME-3M melanoma,> 100 µM
same,TGI,OVCAR-8 ovarian,> 100 µM
same,TGI,SNB-19 CNS,> 100 µM
same,TGI,HT29 colon,> 100 µM
same,TGI,LOX IMVI melanoma,> 100 µM
same,TGI,HOP-62 NSCLC,> 100 µM
same,TGI,NCI-H226 lung,> 100 µM
same,TGI,SN12C renal,> 100 µM
same,TGI,HS 578T breast,> 100 µM
same,TGI,KM12 colon,> 100 µM
same,TGI,UACC-62 melanoma,> 100 µM
same,TGI,SF-539 CNS,> 100 µM
same,TGI,NCI/ADR-RES ovarian,> 100 µM
same,TGI,EKVX NSCLC,> 100 µM
same,TGI,DU-145 prostate,> 100 µM
same,TGI,SF-295 CNS,> 100 µM
same,TGI,NCI-H522 lung,> 100 µM
same,TGI,T-47D breast,> 100 µM
same,TGI,MDA-MB-231 breast,> 100 µM
same,TGI,UO-31 renal,> 100 µM
same,TGI,IGROV1 ovarian,> 100 µM
same,TGI,BT-549 breast,> 100 µM
same,TGI,SK-OV-3 ovarian,> 100 µM
same,TGI,786-0 renal,> 100 µM
same,TGI,CCRF-CEM leukemia,> 100 µM
same,TGI,SK-MEL-5 melanoma,> 100 µM
same,TGI,COLO 205 colon,> 100 µM
same,TGI,A549 NSCLC,> 100 µM
same,TGI,MOLT-4 leukemia,> 100 µM
same,TGI,OVCAR-3 ovarian,> 100 µM
N#CCCN(CCC#N)c1ccc(C(N=Nc2ccccc2)=Nc2ccc(F)cc2)cc1,TGI,M14 melanoma,> 100 µM
same,TGI,U251 CNS,> 100 µM
same,TGI,SW-620 colon,> 100 µM
same,TGI,K-562 leukemia,> 100 µM
same,TGI,PC-3 prostate,> 100 µM
same,TGI,SF-268 CNS,> 100 µM
same,TGI,HCT-15 colon,> 100 µM
same,TGI,NCI-H23 lung,> 100 µM
same,TGI,CAKI-1 renal,> 100 µM
same,TGI,OVCAR-5 ovarian,> 100 µM
same,TGI,HCT-116 colon,> 100 µM
same,TGI,SK-MEL-2 melanoma,> 100 µM
same,TGI,SK-MEL-28 melanoma,> 100 µM
same,TGI,SNB-75 CNS,> 100 µM
same,TGI,HOP-92 NSCLC,> 100 µM
same,TGI,HCC-2998 colon,> 100 µM
same,TGI,NCI-H460 lung,> 100 µM
same,TGI,MDA-MB-435,> 100 µM
same,TGI,A498 renal,> 100 µM
same,TGI,TK-10 renal,> 100 µM
same,TGI,RPMI-8226 leukemia,> 100 µM
same,TGI,UACC-257 melanoma,> 100 µM
same,TGI,MCF7 breast,> 100 µM
same,TGI,ACHN renal,> 100 µM
same,TGI,MDA-N,> 100 µM
same,TGI,SR leukemia,> 100 µM
same,TGI,OVCAR-8 ovarian,> 100 µM
same,TGI,SNB-19 CNS,> 100 µM
same,TGI,HT29 colon,> 100 µM
same,TGI,HOP-62 NSCLC,> 100 µM
same,TGI,RXF 393 renal,> 100 µM
same,TGI,OVCAR-4 ovarian,> 100 µM
same,TGI,NCI-H226 lung,> 100 µM
same,TGI,SN12C renal,> 100 µM
same,TGI,HS 578T breast,> 100 µM
same,TGI,KM12 colon,> 100 µM
same,TGI,UACC-62 melanoma,> 100 µM
same,TGI,SF-539 CNS,> 100 µM
same,TGI,NCI/ADR-RES ovarian,> 100 µM
same,TGI,EKVX NSCLC,> 100 µM
same,TGI,DU-145 prostate,> 100 µM
same,TGI,SF-295 CNS,> 100 µM
same,TGI,NCI-H522 lung,69.8 µM
same,TGI,T-47D breast,> 100 µM
same,TGI,MDA-MB-231 breast,> 100 µM
same,TGI,UO-31 renal,> 100 µM
same,TGI,IGROV1 ovarian,> 100 µM
same,TGI,BT-549 breast,> 100 µM
same,TGI,SK-OV-3 ovarian,> 100 µM
same,TGI,786-0 renal,> 100 µM
same,TGI,SK-MEL-5 melanoma,> 100 µM
same,TGI,COLO 205 colon,> 100 µM
same,TGI,A549 NSCLC,> 100 µM
same,TGI,MOLT-4 leukemia,> 100 µM
same,TGI,OVCAR-3 ovarian,> 100 µM
